The values that follow come from patent US11918592B2, “Inhibitors of cyclin dependent kinase 7 (CDK7)” (Syros Pharmaceuticals, Inc., priority 2018, dated 2024).

In one assay the test system is COV318 cells. Put plainly: Inhibition of cell proliferation, CyQUANT Direct, COV318. The assay is classed as cell-based. The note with it: Homo sapiens; COV318 ovarian cancer cells, 72-hour; read-out: COV 318 proliferation calculated IC50.
A further assay concerns the target CDK2/Cyclin E1 complex (Homo sapiens, UniProt P24941). Description: CDK2 kinase inhibition assay (Caliper/LabChip EZ Reader).
Assay [1] addresses CDK7/Cyclin H/MAT1 complex (Homo sapiens, UniProt P50613). Description: CDK7 kinase inhibition assay (Caliper/LabChip EZ Reader).
In a further assay the target is CDK9/Cyclin T1 complex (Homo sapiens, UniProt P50750). Description: CDK9 kinase inhibition assay (Caliper/LabChip EZ Reader).
Sequence of CDK9/Cyclin T1 complex (P50750 whole entry): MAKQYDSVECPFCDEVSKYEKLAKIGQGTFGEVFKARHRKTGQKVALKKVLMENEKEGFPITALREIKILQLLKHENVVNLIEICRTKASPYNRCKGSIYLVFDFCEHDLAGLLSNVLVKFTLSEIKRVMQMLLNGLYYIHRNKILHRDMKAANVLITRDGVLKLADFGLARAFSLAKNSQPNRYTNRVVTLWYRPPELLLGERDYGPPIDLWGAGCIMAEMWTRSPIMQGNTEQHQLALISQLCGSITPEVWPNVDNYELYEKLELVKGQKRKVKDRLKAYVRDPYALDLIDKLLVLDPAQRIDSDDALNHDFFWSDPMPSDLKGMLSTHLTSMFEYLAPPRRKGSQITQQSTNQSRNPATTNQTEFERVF
Sequence of CDK9/Cyclin T1 complex (O60563 whole entry partner): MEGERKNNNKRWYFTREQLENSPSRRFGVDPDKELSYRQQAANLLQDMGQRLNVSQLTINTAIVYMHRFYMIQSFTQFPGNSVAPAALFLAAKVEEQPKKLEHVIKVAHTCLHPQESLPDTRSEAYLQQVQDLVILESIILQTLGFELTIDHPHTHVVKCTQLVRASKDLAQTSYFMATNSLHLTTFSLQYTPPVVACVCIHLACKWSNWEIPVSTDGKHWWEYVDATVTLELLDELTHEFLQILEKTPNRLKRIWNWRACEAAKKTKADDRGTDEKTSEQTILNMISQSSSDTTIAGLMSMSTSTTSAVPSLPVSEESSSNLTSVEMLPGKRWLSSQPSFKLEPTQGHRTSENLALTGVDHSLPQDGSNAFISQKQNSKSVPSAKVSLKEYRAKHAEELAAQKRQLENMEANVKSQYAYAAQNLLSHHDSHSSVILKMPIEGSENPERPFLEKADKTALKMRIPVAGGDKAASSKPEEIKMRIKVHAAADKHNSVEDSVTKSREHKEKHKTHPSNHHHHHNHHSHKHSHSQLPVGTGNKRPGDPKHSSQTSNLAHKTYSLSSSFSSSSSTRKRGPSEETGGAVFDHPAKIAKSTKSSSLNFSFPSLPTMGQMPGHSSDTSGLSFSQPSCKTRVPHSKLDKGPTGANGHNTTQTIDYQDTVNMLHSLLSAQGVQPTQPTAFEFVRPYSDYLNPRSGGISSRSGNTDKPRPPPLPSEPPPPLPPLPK
Another assay concerns MB453 cells. Description: Inhibition of cell proliferation, CyQUANT Direct, MB453. The assay is classed as cell-based, human. The note with it: Homo sapiens, read-out: MB 453 proliferation calculated IC50.
The next assay deals with COV504 cells. Description: Inhibition of cell proliferation, CyQUANT Direct, COV504. The class given is cell-based. As to conditions: Homo sapiens; COV504 ovarian cancer cells, 72-hour; read-out: COV 504 proliferation calculated IC50.
The test system of a further assay is HCC70 cells. Put plainly: Inhibition of cell proliferation, CyQUANT Direct, HCC70. The assay is classed as cell-based, human. As to conditions: Homo sapiens, read-out: HCC 70 proliferation calculated IC50.
Assay [2] addresses CDK12 (aa686-1082)/Cyclin K complex (Homo sapiens, UniProt Q9NYV4). Description: CDK12 kinase inhibition assay (Caliper/LabChip EZ Reader).
The mark [3] stands for this setting: MB453 triple negative breast cancer cells, 72-hour.
Where [4] appears, read: HCC70 triple negative breast cancer cells, 72-hour.

SMILES strings stand for the structures. Read-outs that look alike come from different tables or passages of the source.

Sequence of CDK7/Cyclin H/MAT1 complex (P50613 whole entry): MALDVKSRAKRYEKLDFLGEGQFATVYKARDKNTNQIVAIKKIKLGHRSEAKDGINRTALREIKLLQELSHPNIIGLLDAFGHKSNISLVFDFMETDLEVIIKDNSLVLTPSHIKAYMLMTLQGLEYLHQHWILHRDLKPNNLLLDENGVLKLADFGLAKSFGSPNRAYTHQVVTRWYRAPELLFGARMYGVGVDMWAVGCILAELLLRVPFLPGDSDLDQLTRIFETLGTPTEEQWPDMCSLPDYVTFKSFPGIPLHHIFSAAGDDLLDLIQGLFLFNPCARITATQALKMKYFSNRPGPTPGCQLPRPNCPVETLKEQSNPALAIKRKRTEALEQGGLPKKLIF
Sequence of CDK7/Cyclin H/MAT1 complex (P51946 whole entry partner): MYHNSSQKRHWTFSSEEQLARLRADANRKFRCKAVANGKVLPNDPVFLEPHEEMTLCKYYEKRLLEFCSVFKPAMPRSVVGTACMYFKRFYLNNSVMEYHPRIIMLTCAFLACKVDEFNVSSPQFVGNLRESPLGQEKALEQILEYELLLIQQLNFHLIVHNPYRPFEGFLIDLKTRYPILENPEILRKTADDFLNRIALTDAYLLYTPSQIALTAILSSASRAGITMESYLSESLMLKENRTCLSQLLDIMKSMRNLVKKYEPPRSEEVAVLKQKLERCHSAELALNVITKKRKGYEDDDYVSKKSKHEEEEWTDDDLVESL
Sequence of CDK7/Cyclin H/MAT1 complex (P51948 whole entry partner): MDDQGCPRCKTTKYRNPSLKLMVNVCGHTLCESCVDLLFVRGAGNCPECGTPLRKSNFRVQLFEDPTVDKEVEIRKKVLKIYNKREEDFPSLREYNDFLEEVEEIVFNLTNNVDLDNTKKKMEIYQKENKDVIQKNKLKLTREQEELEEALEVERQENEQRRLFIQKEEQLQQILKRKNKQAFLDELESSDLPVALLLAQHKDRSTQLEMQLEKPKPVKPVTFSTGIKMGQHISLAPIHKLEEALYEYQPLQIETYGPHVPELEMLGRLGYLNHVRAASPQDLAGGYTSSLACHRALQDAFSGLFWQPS
Sequence of CDK12 (aa686-1082)/Cyclin K complex (Q9NYV4 686-1082): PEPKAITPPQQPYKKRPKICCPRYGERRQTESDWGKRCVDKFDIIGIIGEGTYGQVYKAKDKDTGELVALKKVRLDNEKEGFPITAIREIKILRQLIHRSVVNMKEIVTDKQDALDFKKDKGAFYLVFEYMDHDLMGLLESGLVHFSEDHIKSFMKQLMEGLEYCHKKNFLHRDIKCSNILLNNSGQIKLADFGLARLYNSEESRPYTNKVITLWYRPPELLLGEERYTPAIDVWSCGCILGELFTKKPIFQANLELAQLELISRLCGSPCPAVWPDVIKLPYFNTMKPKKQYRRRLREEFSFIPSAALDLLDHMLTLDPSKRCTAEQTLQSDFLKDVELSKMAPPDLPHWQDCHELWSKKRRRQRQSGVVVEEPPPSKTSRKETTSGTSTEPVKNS
Sequence of CDK12 (aa686-1082)/Cyclin K complex (O75909 whole entry partner, the tested form may be a part): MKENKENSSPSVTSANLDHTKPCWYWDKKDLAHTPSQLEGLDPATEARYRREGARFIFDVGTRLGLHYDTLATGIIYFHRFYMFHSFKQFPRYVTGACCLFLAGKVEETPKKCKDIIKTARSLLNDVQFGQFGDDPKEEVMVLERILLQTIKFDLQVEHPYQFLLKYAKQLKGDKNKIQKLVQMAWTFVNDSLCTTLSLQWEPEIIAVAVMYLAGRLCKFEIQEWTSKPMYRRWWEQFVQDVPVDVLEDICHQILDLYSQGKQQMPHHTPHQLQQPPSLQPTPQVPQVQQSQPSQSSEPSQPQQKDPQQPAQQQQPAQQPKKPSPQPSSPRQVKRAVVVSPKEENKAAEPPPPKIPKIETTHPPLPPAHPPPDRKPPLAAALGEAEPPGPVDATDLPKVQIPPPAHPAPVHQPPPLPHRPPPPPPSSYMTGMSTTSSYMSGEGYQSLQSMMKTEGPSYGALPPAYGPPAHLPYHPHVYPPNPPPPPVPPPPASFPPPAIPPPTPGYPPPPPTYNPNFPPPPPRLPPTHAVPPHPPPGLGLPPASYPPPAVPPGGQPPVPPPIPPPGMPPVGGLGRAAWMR
Method for CDK2/Cyclin E1 complex: (§1) Compounds of the invention were assayed for inhibition of CDK7, CDK9, CDK12, and CDK2 activity at Biortus Biosciences (Jiangyin, Jiangsu Province, P.R. of China) using kinase assays for each CDK developed with a Caliper/LabChip EZ Reader (Perkin Elmer, Waltham, MA).
(§2) Furthermore, the CDK9 inhibition assay used CDK9/Cyclin T1 complex (8 nM) and “5-FAM-CDK9tide” peptide substrate (2 μM, synthesized fluorophore-labeled peptide with the following sequence: 5-FAM-GSRTPMY-NH2 (SEQ ID NO:2) where 5-FAM is defined above and NH2 signifies a C-terminal amide) with 10 mM MgCl2 in the buffer composition listed above. The CDK12 inhibition assay used CDK12 (aa686-1082)/Cyclin K complex (50 nM) and “5-FAM-CDK9tide” (2 μM) as defined above, with 2 mM MgCl2 in the buffer composition above. Additionally, the CDK2 inhibition assay used CDK2/Cyclin E1 complex (0.5 nM) and “5-FAM-CDK7tide” (2 μM) as defined above, with 2 mM MgCl2 in the buffer composition listed above.
(§3) The incubation period at 27° C. for each CDK inhibition assay was chosen such that the fraction of phosphorylated peptide product produced in each assay, relative to the total peptide concentration, was approximately 20% (±5%) for the uninhibited kinase (35 min. for CDK7, 35 min. for CDK2, 3 hr. for CDK12, 15 min. for CDK9).
Method for CDK9/Cyclin T1 complex: as §1, §2, §3

On to `N#Cc1ccc2c(-c3nc(N[C@H]4CCC[C@@H]4N)ncc3C(F)(F)F)c[nH]c2c1` [Compound 101], for which the IC50 in the assay with COV318 cells was 100 to 500 nM; against CDK2/Cyclin E1 complex it was > 500 nM; in assay [1], < 30 nM; at CDK9/Cyclin T1 complex, > 500 nM; with MB453 cells (setting [3]), 100 to 500 nM; in the assay on COV504 cells it was 100 to 500 nM. Also, the values for the IC50 (with HCC70 cells (setting [4]); in assay [2]) were 100 to 500 nM and > 500 nM, respectively.

On to `N#Cc1ccc2c(-c3nc(N[C@@H]4CC[C@H]4N4CCOCC4)ncc3C(F)(F)F)c[nH]c2c1` [Compound 132], for which the IC50 is > 2000 nM in the assay on COV318 cells; > 500 nM at CDK2/Cyclin E1 complex; > 500 nM in assay [1]; > 500 nM at CDK9/Cyclin T1 complex; > 2000 nM in the assay on MB453 cells (setting [3]); > 2000 nM with COV504 cells. Also, the results for the IC50 (with HCC70 cells (setting [4]); in assay [2]) were > 2000 nM and > 500 nM, respectively.

For the molecule `COCCN[C@H]1CCC[C@@H]1Nc1ncc(C(F)(F)F)c(-c2c[nH]c3cc(C#N)ccc23)n1` [Compound 123, 3-[2-[[(1S,2S)-2-(2-methoxyethylamino)cyclopentyl]-amino]-5-(trifluoromethyl)pyrimidin-4-yl]-1H-indole-6-carbonitrile], the IC50 in the assay with COV318 cells is 100 to 500 nM; on CDK2/Cyclin E1 complex, > 500 nM; in assay [1] it was < 30 nM; against CDK9/Cyclin T1 complex, > 500 nM; with MB453 cells (setting [3]), 100 to 500 nM; in the assay with COV504 cells, 100 to 500 nM. The IC50 in the assay with HCC70 cells (setting [4]) was 100 to 500 nM; in assay [2] it was > 500 nM.

As to `Cc1noc(C)c1-c1ccc2c(-c3nc(N[C@H]4CCC[C@@H]4N4CC[C@@H](F)C4)ncc3C(F)(F)F)c[nH]c2n1` [Compound 148, 4-[6-(3,5-dimethylisoxazol-4-yl)-1H-pyrrolo[2,3-b]pyridin-3-yl]-N-[(1S,2S)-2-[(3R)-3-fluoropyrrolidin-1-yl]cyclopentyl]-5-(trifluoromethyl)pyrimidin-2-amine], the IC50 is > 2000 nM in the assay with COV318 cells; > 500 nM against CDK2/Cyclin E1 complex; < 30 nM in assay [1]; > 500 nM on CDK9/Cyclin T1 complex; 100 to 500 nM in the assay with MB453 cells (setting [3]); < 100 nM in the assay on COV504 cells. Further, the results for the IC50 (in the assay on HCC70 cells (setting [4]); in assay [2]) were 100 to 500 nM and > 500 nM, respectively.

As to `Cc1noc(C)c1-c1ccc2c(-c3nc(N[C@H]4CCC[C@@H]4N4CC(O)C4)ncc3C(F)(F)F)c[nH]c2n1` [Compound 159, 1-[(1S,2S)-2-[[4-[6-(3,5-dimethylisoxazol-4-yl)-1H-pyrrolo[2,3-b]pyridin-3-yl]-5-(trifluoromethyl)pyrimidin-2-yl]amino]cyclopentyl] azetidin-3-ol], the IC50 in the assay with COV318 cells is > 2000 nM; against CDK2/Cyclin E1 complex, > 500 nM; in assay [1], < 30 nM; on CDK9/Cyclin T1 complex it was > 500 nM; in the assay with MB453 cells (setting [3]), 100 to 500 nM; in the assay on COV504 cells, 100 to 500 nM. Moreover, the IC50 is < 100 nM with HCC70 cells (setting [4]) and > 500 nM in assay [2].

`N#Cc1ccc2c(-c3nc(N[C@H]4CC[C@@H]4N)ncc3C(F)(F)F)c[nH]c2c1` [Compound 103]: the IC50 with COV318 cells was 100 to 500 nM; on CDK2/Cyclin E1 complex it was > 500 nM; in assay [1], < 30 nM; on CDK9/Cyclin T1 complex it was > 500 nM; with MB453 cells (setting [3]) it was 100 to 500 nM; in the assay on COV504 cells, 100 to 500 nM. Further, the IC50 is 100 to 500 nM with HCC70 cells (setting [4]) and > 500 nM in assay [2].

On to `N#Cc1ccc2c(-c3nc(N[C@H]4CCCC[C@@H]4N)ncc3C(F)(F)F)c[nH]c2c1` [Compound 100], for which the IC50 was > 2000 nM with COV318 cells; > 500 nM on CDK2/Cyclin E1 complex; > 500 nM in assay [1]; > 500 nM against CDK9/Cyclin T1 complex; 500 to 2000 nM with MB453 cells (setting [3]); > 2000 nM with COV504 cells. In addition, the IC50 in the assay with HCC70 cells (setting [4]) is > 2000 nM; in assay [2] it was > 500 nM.

On to `Cc1noc(C)c1-c1ccc2c(-c3nc(N[C@H]4CCC[C@@H]4NCCF)ncc3C(F)(F)F)c[nH]c2n1` [Compound 151, (1S,2S)—N1-[4-[6-(3,5-dimethylisoxazol-4-yl)-1H-pyrrolo[2,3-b]pyridin-3-yl]-5-(trifluoromethyl)pyrimidin-2-yl]-N2-(2-fluoroethyl)cyclopentane-1,2-diamine], for which the IC50 with COV318 cells is > 2000 nM; on CDK2/Cyclin E1 complex, > 500 nM; in assay [1], < 30 nM; against CDK9/Cyclin T1 complex it was > 500 nM; with MB453 cells (setting [3]), 100 to 500 nM; in the assay with COV504 cells, < 100 nM. Further, the IC50 with HCC70 cells (setting [4]) is < 100 nM; in assay [2] it was > 500 nM.

Take `CN1CC[C@H](Nc2ncc(C(F)(F)F)c(-c3c[nH]c4cc(C#N)ccc34)n2)C1` [Compound 109]: the IC50 in the assay with COV318 cells is 500 to 2000 nM; against CDK2/Cyclin E1 complex, > 500 nM; in assay [1], 100 to 500 nM; on CDK9/Cyclin T1 complex, > 500 nM; in the assay on MB453 cells (setting [3]), 500 to 2000 nM; with COV504 cells it was 500 to 2000 nM. In addition, the IC50 in the assay on HCC70 cells (setting [4]) is 500 to 2000 nM; in assay [2] it was > 500 nM.

Take `CCN[C@H]1CC[C@@H]1Nc1ncc(C(F)(F)F)c(-c2c[nH]c3cc(C#N)ccc23)n1` [Compound 131, 3-[2-[[(1S,2S)-2-(ethylamino)cyclobutyl]-amino]-5-(trifluoromethyl)pyrimidin-4-yl]-1H-indole-6-carbonitrile]: the IC50 in the assay with COV318 cells was 500 to 2000 nM; against CDK2/Cyclin E1 complex, > 500 nM; in assay [1], < 30 nM; against CDK9/Cyclin T1 complex, > 500 nM; in the assay with MB453 cells (setting [3]), 100 to 500 nM; with COV504 cells, 100 to 500 nM. Moreover, the figures for the IC50 (in the assay on HCC70 cells (setting [4]); in assay [2]) were 500 to 2000 nM and > 500 nM, respectively.

On to `Cc1noc(C)c1-c1ccc2c(-c3nc(N[C@H]4CCC[C@@H]4N4CCC4)ncc3C(F)(F)F)c[nH]c2n1` [Compound 146, N-[(1S, 2S)-2-(azetidin-1-yl)cyclopentyl]-4-[6-(3,5-dimethylisoxazol-4-yl)-1H-pyrrolo [2,3-b]pyridin-3-yl]-5-(trifluoromethyl) pyrimidin-2-amine], for which the IC50 was > 2000 nM with COV318 cells; > 500 nM at CDK2/Cyclin E1 complex; < 30 nM in assay [1]; > 500 nM against CDK9/Cyclin T1 complex; < 100 nM with MB453 cells (72 h); < 100 nM in the assay on COV504 cells. For the same molecule, the IC50 was < 100 nM with HCC70 cells (HCC70, 72 h) and > 500 nM in assay [2].

Take `N#Cc1ccc2c(-c3nc(N[C@@H]4CNC[C@H]4F)ncc3C(F)(F)F)c[nH]c2c1` (relative stereo) [Compound 110]: the IC50 in the assay on COV318 cells was > 2000 nM; on CDK2/Cyclin E1 complex, > 500 nM; in assay [1] it was 100 to 500 nM; on CDK9/Cyclin T1 complex, > 500 nM; in the assay with MB453 cells (setting [3]), > 2000 nM; in the assay on COV504 cells, 500 to 2000 nM. In addition, the IC50 in the assay on HCC70 cells (setting [4]) was 500 to 2000 nM; in assay [2], > 500 nM.

`Cc1noc(C)c1-c1ccc2c(-c3nc(N[C@@H]4C[C@@H]5CC[C@H]4N5)ncc3C(F)(F)F)c[nH]c2n1` [Compound 140]: the IC50 in the assay on COV318 cells was < 100 nM; against CDK2/Cyclin E1 complex it was > 500 nM; in assay [1] it was < 30 nM; against CDK9/Cyclin T1 complex, > 500 nM; in the assay with MB453 cells (setting [3]) it was < 100 nM; in the assay on COV504 cells, < 100 nM. Also, the IC50 with HCC70 cells (setting [4]) was < 100 nM; in assay [2], > 500 nM.

As to `C[C@H]1C[C@H](Nc2ncc(C(F)(F)F)c(-c3c[nH]c4cc(C#N)ccc34)n2)CN1` [Compound 104], the IC50 in the assay on COV318 cells is > 2000 nM; on CDK2/Cyclin E1 complex, > 500 nM; in assay [1] it was 30 to 100 nM; against CDK9/Cyclin T1 complex, > 500 nM; with MB453 cells (setting [3]) it was 100 to 500 nM; with COV504 cells, 100 to 500 nM. Also, the IC50 in the assay on HCC70 cells (setting [4]) was 500 to 2000 nM; in assay [2] it was > 500 nM.

In the case of `CC(=O)N[C@H]1CC[C@@H]1Nc1ncc(C(F)(F)F)c(-c2c[nH]c3cc(C#N)ccc23)n1` [Compound 125, N-[(1S,2S)-2-[[4-(6-cyano-1H-indol-3-yl)-5-(trifluoromethyl)pyrimidin-2-yl]-amino]-cyclobutyl]-acetamide], the IC50 was > 2000 nM in the assay on COV318 cells; > 500 nM against CDK2/Cyclin E1 complex; > 500 nM in assay [1]; > 500 nM on CDK9/Cyclin T1 complex; 500 to 2000 nM with MB453 cells (setting [3]); > 2000 nM in the assay with COV504 cells. Moreover, the IC50 with HCC70 cells (setting [4]) is > 2000 nM; in assay [2], > 500 nM.

As to `Cc1noc(C)c1-c1ccc2c(-c3nc(N[C@H]4CCC[C@@H]4N4CC(F)(F)C4)ncc3C(F)(F)F)c[nH]c2n1` [Compound 166, N-[(1S,2S)-2-(3,3-difluoroazetidin-1-yl)cyclopentyl]-4-[6-(3,5-dimethylisoxazol-4-yl)-1H-pyrrolo[2,3-b]pyridin-3-yl]-5-(trifluoromethyl)pyrimidin-2-amine], the IC50 in the assay on COV318 cells was > 2000 nM; against CDK2/Cyclin E1 complex, > 500 nM; in assay [1] it was > 500 nM; at CDK9/Cyclin T1 complex, > 500 nM; with MB453 cells (setting [3]), > 2000 nM; with COV504 cells it was > 2000 nM. Also, the IC50 in the assay on HCC70 cells (setting [4]) is > 2000 nM; in assay [2], > 500 nM.

As to `Cc1noc(C)c1-c1ccc2c(-c3nc(N[C@H]4CCC[C@@H]4N)ncc3C(F)(F)F)n[nH]c2n1` [Compound 157, (1S,2S)—N1-[4-[6-(3,5-dimethylisoxazol-4-yl)-1H-pyrazolo [3,4-b]pyridin-3-yl]-5-(trifluoromethyl)pyrimidin-2-yl]cyclopentane-1,2-diamine], the IC50 in the assay with COV318 cells is 100 to 500 nM; at CDK2/Cyclin E1 complex, > 500 nM; in assay [1], < 30 nM; on CDK9/Cyclin T1 complex, > 500 nM; with MB453 cells (setting [3]), 100 to 500 nM; with COV504 cells it was 100 to 500 nM. The IC50 was 100 to 500 nM with HCC70 cells (setting [4]) and > 500 nM in assay [2].
